Where two headings read alike, the source gives them in different places.
What was measured:
[1] = oral exposure, within 24-96 hours of ingestion; cited from earlier work
[2] = target: acetylcholinesterase (AChE) (Homo sapiens, UniProt P22303); experiment: In vitro acetylcholinesterase activity assay; format: biochemical
Procedure: In the AChE assay, a reaction mixture containing DCB was incubated at 20° C. in the dark for 10 min, and 10 μL of AChE solution was then added. For measuring in vitro AChE activity, the test solutions contained DCB at various concentrations, including 5, 25, 50, 100, 200, and 400 µg/mL (FIGS. 13A and 13B). After AChE was added, the reaction mixture was incubated at 20° C. for 10 min, and the absorbance was measured at 405 nm.

Enterococcus faecalis = experiment: Agar disk diffusion on urine cultures, Enterococcus faecalis; format: cell-based
From the text: (§1) Agar disk diffusion testing was used for antimicrobial susceptibility testing. The test provides qualitative results by categorizing susceptible, intermediate or resistant bacteria. Agar disk diffusion testing cannot distinguish bactericidal and bacteriostatic effects. Moreover, the agar disk-diffusion method is not appropriate to determine the minimum inhibitory concentration (MIC), as it is impossible to quantify the amount of the antimicrobial agent diffused into the agar medium. The advantages of this method, mainly simplicity and low cost, have contributed to its common use for the antimicrobial screening of plant extracts, essential oils, and other drugs.
(§2) The study has been performed on 47 urine samples collected from patients diagnosed with urinary tract infection (UTI), before instituting any type of therapy. Several types of pathogens were identified from the urine cultures performed: Escherichia coli-34 cases; Klebsiella pneumoniae-six cases; Proteus mirabilis-one case; Staphylococcus haemolyticus-one case; Enterococcus faecalis-two cases; Candida albicans-three cases. The susceptibility testing of the pathogens has been performed using DCB-impregnated microdisks to identify the optimal value that induces a significant inhibition of microbial culture development, compared to certified antibiotic/antifungal microdisks. The antibiogram/antifungal was performed on the Müller-Hinton (MH)/Sabouraud medium, and the results obtained using DCB-impregnated microdisks are presented in the Table 7, compared to the action of the reference microdisks.

[3] = tested on: Staphylococcus haemolyticus; experiment: Agar disk diffusion on urine cultures, Staphylococcus haemolyticus; format: cell-based
From the text: as §1, §2

Proteus mirabilis = experiment: Agar disk diffusion on urine cultures, Proteus mirabilis; format: cell-based
From the text: as §1, §2

Escherichia coli = experiment: Agar disk diffusion on urine cultures, Escherichia coli; format: cell-based
From the text: as §1, §2

Klebsiella pneumoniae = experiment: Agar disk diffusion on urine cultures, Klebsiella pneumoniae; format: cell-based
From the text: as §1, §2

L929 cells = format: cell-based; conditions: mouse, 24 h
Procedure: In vitro DCB cytotoxicity: The viability of L929 cells treated for 24 hours with different concentrations of DCB was tested by the 3-(4,5-dimethylthiazol-2-yl)-2,5-diphenyltetrazolium bromide (MTT) assay. The MTT assay is commonly used for cytotoxicity, viability, and cell proliferation studies. The treatment of cells with MTT allows the assessment of oxidative metabolism and cellular response to external factors that can have a positive or negative effect on cell survival in culture. This quantitative colorimetric method is based on the reduction of the yellow-colored compound MTT to a dark blue formazan. The reduction of MTT, achieved by mitochondrial enzymes, e.g., succinate dehydrogenase, is directly proportional to the number of viable cells, being an index of cellular/mitochondrial integrity. The optical density is evaluated spectrophotometrically, resulting in a direct relationship between absorbance, dye concentration, and the number of viable and metabolically active cells.
In multi-well plates, L929 cells were plated at a cell concentration of 10^4 cells/cm^2. MTT (1 mg/ml, in a culture medium without serum) and DCB was added to each well. […] The resulting solution was densitometered at 550 nm, there being a direct proportional relationship between the recorded optical density and the number of metabolically active cells.

BALB/c mice = experiment: In vivo DCB toxicity (acute, subchronic, chronic)
Procedure: (§3) In vivo DCB toxicity: The laboratory animals and the experimental protocol for determining acute, subchronic and chronic toxicity were established in accordance with the Organization for Economic Co-operation and Development (OECD) Guidelines for Testing of Chemicals. The toxicodynamic experiment was performed on groups of 10 BALB/c mice, eight weeks old, with an average weight of 25 g, the number of females and males being equally distributed (five for each group), which were administered different doses of DCB, at various intervals, as follows: • (i) for the acute experiment (at 24 hours): • (a) per os (p.o.), by oral gavage, five different doses of DCB in distilled water: 5 mg/kg body weight (b.w.), 50 mg/kg b.w., 300 mg/kg b.w., 2000 mg/kg b.w. and 5000 mg/kg b.w.; • (b) intra-peritoneal (i.p), a single dose of DCB, in saline: 50 mg/kg b.w.; • (ii) for the subacute experiment (lasting 28 days), three different daily doses of DCB in drinking water: 50 mg/kg b.w., 300 mg/kg b.w. and 1000 mg/kg b.w.; • (iii) for the chronic experiment (lasting 90 days), three different daily doses of DCB in drinking water: 50 mg/kg b.w., 300 mg/kg b.w. and 1000 mg/kg b.w. Throughout the duration of the experiment, the condition of the animals was monitored daily, at the same hour every day (during morning). Also, the animals were maintained in standard conditions of temperature, humidity, and lighting. Food and water were administered ad libitum. Standard Conditions Include: • A 14-hour light/10-hour dark cycle or 12 light/12 dark cycle; • A temperature of 65-75° F. (~18-23° C.); and • A humidity of 40-60%.
(§4) The control mice were monitored and maintained under the same conditions, only that instead of the DCB they received: • (i) for the acute experiment: (a) distilled water, p.o., by oral gavage and (b) saline, i.p., respectively; • (ii) for the subacute experiment and for the chronic one: only the drinking water normally consumed. […]

[4] = In vivo DCB toxicity (acute, subchronic, chronic); set-up: species or system mice; conditions: both sexes, BALB/c, mouse, in vivo, po; acute, p.o. administration in mice; read-out: median lethal dose (LD50)
Procedure: as §3, §4

[5] = tested on: pathogens identified from urine cultures of patients with urinary tract infection; experiment: Antibiotic/antifungal screening on urine cultures, all pathogens together; format: cell-based
From the text: as §1
as §2, with “The antibiogram/antifungal was performed on the Müller-Hinton (MH)/Sabouraud medium, and the results obtained using DCB-impregnated microdisks are presented in the Table 7, compared to the action of the reference microdisks.” left out

DPPH scavenging assay = format: biochemical
[6] = format: in vitro ADME
From the text: FIG. 11 is the in vitro simulation of DCB digestion: stomach (gastric phase, at pH 1.2 and pH 4.5) and duodenum (small intestinal phase, at pH 7.2). (DCB: Chlorogenoborate diester complex);
DCB is protected from acids or/and enzymes in the stomach and small intestine. Chlorogenic acids are, generally, resistant to acid environment and digestive enzymes. […] The DCB complex is dissociated in the colon by borate group transfer to cis-diol sugars, e.g., fructose and sialic acid, in bacteria in the microbiome in the gut mucus membrane. The sugar/borate complexes have a high association constant. […] At a gastric pH of 1.2, DCB undergoes about 50% degradation. When there is food in the stomach, after a meal, the stomach pH can raise to as high as 4-5. Under conditions prevailing after a meal (pH 4.5), DCB undergoes <6% degradation. Under conditions prevailing in the intestines (pH 7.2), DCB undergoes <4% degradation. Thus, when administered with a meal, DCB is protected in the gastrointestinal tract and works as a classical prebiotic. Alternatively, DCB may be administered in a dosage form with an enteric coating which is stable and protects DCB from stomach acids, but which dissolves or breaks down at pH values in the intestines. Suitable enteric polymers include methyl (meth)acrylate-(meth)acrylic acid copolymers, cellulose acetate phthalate (CAP), cellulose acetate succinate, hydroxypropyl methyl cellulose phthalate, hydroxypropyl methyl cellulose acetate succinate, polyvinyl acetate phthalate, and similar polymers.

Candida albicans = experiment: Agar disk diffusion on urine cultures, Candida albicans; format: cell-based
From the text: as §1, §2

Sequence of acetylcholinesterase (AChE) (P22303 32-614, species assumed): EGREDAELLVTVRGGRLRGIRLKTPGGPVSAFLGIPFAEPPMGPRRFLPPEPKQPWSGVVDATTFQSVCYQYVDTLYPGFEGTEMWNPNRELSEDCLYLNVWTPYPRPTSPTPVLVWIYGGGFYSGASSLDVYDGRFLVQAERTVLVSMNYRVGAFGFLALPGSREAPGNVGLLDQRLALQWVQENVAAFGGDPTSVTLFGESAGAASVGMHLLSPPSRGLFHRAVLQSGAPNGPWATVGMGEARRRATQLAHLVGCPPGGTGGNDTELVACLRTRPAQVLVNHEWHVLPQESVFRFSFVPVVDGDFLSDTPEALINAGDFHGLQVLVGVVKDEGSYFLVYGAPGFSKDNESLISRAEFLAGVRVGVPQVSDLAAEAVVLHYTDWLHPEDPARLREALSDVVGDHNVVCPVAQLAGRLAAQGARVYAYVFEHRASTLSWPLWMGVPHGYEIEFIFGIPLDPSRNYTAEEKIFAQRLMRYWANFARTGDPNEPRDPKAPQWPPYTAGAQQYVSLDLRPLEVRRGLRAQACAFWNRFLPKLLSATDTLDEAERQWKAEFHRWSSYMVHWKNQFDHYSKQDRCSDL

## OB(O)O [BA, Boric acid]
[1]
  BA absorbed: 81-95%

## O=C(/C=C/c1ccc(O)c(O)c1)O[C@@H]1C[C@](O)(C(=O)O)C[C@@H](O)[C@H]1O [CA, Chlorogenic acid, reference compound]
[2]
  IC50: 243 µM
[2]; read-out: inhibition of AChE activity
  inhibition at 110 µg/mL: > 80%

## CO[C@@]1(NC(=O)Cc2cccs2)C(=O)N2C(C(=O)O)=C(COC(N)=O)CS[C@@H]21 [Cefoxitin, reference compound]
Enterococcus faecalis; certified microdisk
  Inhibition diameter (Ø, mm] of microbial culture: 23-26 mm
[3]; certified microdisk
  Inhibition diameter (Ø, mm] of microbial culture: 25 mm

## O=C(O)c1cn(C2CC2)c2cc(N3CCNCC3)c(F)cc2c1=O [Ciprofloxacin, reference compound]
Proteus mirabilis; certified microdisk
  Inhibition diameter (Ø, mm] of microbial culture: 33 mm
Escherichia coli; certified microdisk
  Inhibition diameter (Ø, mm] of microbial culture: 28-35 mm
Klebsiella pneumoniae; certified microdisk
  Inhibition diameter (Ø, mm] of microbial culture: 27-34 mm

## O=C(/C=C/c1ccc2c(c1)O[B-]1(O2)Oc2ccc(/C=C/C(=O)O[C@@H]3C[C@](O)(C(=O)O)C[C@@H](O)[C@H]3O)cc2O1)O[C@H]1C[C@@](O)(C(=O)O)C[C@H](O)[C@@H]1O (stereo partly shown) [DCB, diester chlorogenoborate]
Enterococcus faecalis; 0.025 μM DCB microdisk
  Inhibition diameter (Ø, mm] of microbial culture: 0 mm
Enterococcus faecalis; 2.5 μM DCB microdisk
  Inhibition diameter (Ø, mm] of microbial culture: 0 mm
Enterococcus faecalis; 5.0 μM DCB microdisk
  Inhibition diameter (Ø, mm] of microbial culture: 12-14 mm
Enterococcus faecalis; 50 μM DCB microdisk
  Inhibition diameter (Ø, mm] of microbial culture: 26-29 mm
Proteus mirabilis; 0.025 μM DCB microdisk
  Inhibition diameter (Ø, mm] of microbial culture: 0 mm
Proteus mirabilis; 2.5 μM DCB microdisk
  Inhibition diameter (Ø, mm] of microbial culture: 0 mm
Proteus mirabilis; 5.0 μM DCB microdisk
  Inhibition diameter (Ø, mm] of microbial culture: 15 mm
Proteus mirabilis; 50 μM DCB microdisk
  Inhibition diameter (Ø, mm] of microbial culture: 35 mm
L929 cells
  impact on cell viability compared with 5% aqueous DMSO control: much less impact on MTT concentration, and thus cell viability, than a negative control treated with 5% aqueous DMSO
BALB/c mice; acute (24 hours), subchronic (28 days) and chronic (90 days) experiments
  histopathology of internal organs: normal aspects were highlighted for all internal organs analyzed
BALB/c mice; p.o. administration in mice
  acute toxicity class (OECD): Category V, practically non-toxic
[4]
  LD50 at 24 h: > 5000 mg/kg
[5]; 50 μM DCB-impregnated microdisks
  antimicrobial activity compared with certified microdisks: comparable to, or superior to, that of the certified microdisks
[5]; 0.025 to 2.5 μM DCB
  influence on the growing pathogens: little or no influence on the growing pathogens
Escherichia coli; 0.025 μM DCB microdisk
  Inhibition diameter (Ø, mm] of microbial culture: 0 mm
Escherichia coli; 2.5 μM DCB microdisk
  Inhibition diameter (Ø, mm] of microbial culture: 6-8 mm
Escherichia coli; 5.0 μM DCB microdisk
  Inhibition diameter (Ø, mm] of microbial culture: 8-14 mm
Escherichia coli; 50 μM DCB microdisk
  Inhibition diameter (Ø, mm] of microbial culture: 29-37 mm
[3]; 0.025 μM DCB microdisk
  Inhibition diameter (Ø, mm] of microbial culture: 0 mm
[3]; 2.5 μM DCB microdisk
  Inhibition diameter (Ø, mm] of microbial culture: 0 mm
[3]; 5.0 μM DCB microdisk
  Inhibition diameter (Ø, mm] of microbial culture: 11 mm
[3]; 50 μM DCB microdisk
  Inhibition diameter (Ø, mm] of microbial culture: 27 mm
Klebsiella pneumoniae; 0.025 μM DCB microdisk
  Inhibition diameter (Ø, mm] of microbial culture: 0 mm
Klebsiella pneumoniae; 2.5 μM DCB microdisk
  Inhibition diameter (Ø, mm] of microbial culture: 5-7 mm
Klebsiella pneumoniae; 5.0 μM DCB microdisk
  Inhibition diameter (Ø, mm] of microbial culture: 8-15 mm
Klebsiella pneumoniae; 50 μM DCB microdisk
  Inhibition diameter (Ø, mm] of microbial culture: 28-36 mm
DPPH scavenging assay
  antioxidant activity relative to CA: approximately six times more antioxidant activity than CA
[2]
  IC50: 39.5 µM
  factor of AChE inhibition relative to CA: about 3.4
[6]; pH 1.2
  degradation: about 50%
[6]; pH 4.5
  degradation: < 6%
[6]; pH 7.2
  degradation: < 4%
Candida albicans; 0.025 μM DCB microdisk
  Inhibition diameter (Ø, mm] of microbial culture: 0 mm
Candida albicans; 2.5 μM DCB microdisk
  Inhibition diameter (Ø, mm] of microbial culture: 0 mm
Candida albicans; 5.0 μM DCB microdisk
  Inhibition diameter (Ø, mm] of microbial culture: 12-18 mm
Candida albicans; 50 μM DCB microdisk
  Inhibition diameter (Ø, mm] of microbial culture: 37-40 mm
physchem
  pKa: ~4

## OC(Cn1cncn1)(Cn1cncn1)c1ccc(F)cc1F [Fluconazole, reference compound]
Candida albicans; certified microdisk
  Inhibition diameter (Ø, mm] of microbial culture: 29-33 mm

— patent US12721857B2 (priority 2021, dated 2026)
